Drawing on the supplement of paper PMC10307832, this text covers relative viability for two cell lines.

Experiment in all cases: relative viability (nuclei count vs DMSO), 5 days (fraction); higher = more cells survive
Compound in test [1]: COCC[n+]1c2c(n(Cc3cnccn3)c1C)C(=O)c1ccccc1C2=O [YM155] + CC1(C)CCC(c2ccc(Cl)cc2)=C(CN2CCN(c3ccc(C(=O)NS(=O)(=O)c4ccc(N[C@H](CCN5CCOCC5)CSc5ccccc5)c(S(=O)(=O)C(F)(F)F)c4)cc3)CC2)C1 [Navitoclax] (partner 0.5 µM)
The method, boiled down: (§1)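 Lung cancer cell lines in 1536-well plates were dosed by pin tool the day after seeding, either with one drug alone or with a fixed anchor-drug dose plus five library-drug doses (not always all listed) in √10 steps. After 5 days, cells were fixed and their nuclei stained in one step (final 0.05% Triton X-100, 1% formaldehyde, 1 ug/ml Hoechst), then counted on 4× images. Relative viability is the nuclei count in treated wells divided by that in vehicle wells. Values are medians of duplicate plates.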

Compound in test [2]: CC(C)(C)c1cc(NC(=O)Nc2ccc(-c3cn4c(n3)sc3cc(OCCN5CCOCC5)ccc34)cc2)no1 [Quizartinib] + Nc1ncn([C@H]2C[C@H](O)[C@@H](CO)O2)c(=O)n1 [Decitabine] (partner 2 µM)
The procedure, abridged:
as §1

Compound in test [3]: COCC[n+]1c2c(n(Cc3cnccn3)c1C)C(=O)c1ccccc1C2=O [YM155] + Nc1ncn([C@H]2C[C@H](O)[C@@H](CO)O2)c(=O)n1 [Decitabine] (partner 2 µM)
The procedure, abridged:
as §1

Compound in test [4]: CC(C)(C)c1cc(NC(=O)Nc2ccc(-c3cn4c(n3)sc3cc(OCCN5CCOCC5)ccc34)cc2)no1 [Quizartinib] + COc1cc2c(Oc3ccc(NC(=O)C4(C(=O)Nc5ccc(F)cc5)CC4)cc3F)ccnc2cc1OCCCN1CCOCC1 [Foretinib] (partner 0.25 µM)
The method, boiled down:
as §1

As to SW 1573, the relative viability was determined as 1.05 in test [1] (first compound 0.002 µM); 0.959 in test [1] (first compound 0.006325 µM); 1.04 in test [1] (first compound 0.02 µM); 0.555 in test [1] (first compound 0.06325 µM); 0.513 in test [2] (first compound 0.001 µM); 0.476 in test [2] (first compound 0.003162 µM). The relative viability in test [2] (first compound 0.01 µM) was 0.67; in test [2] (first compound 0.1 µM), 0.625; in test [3] (first compound 0.002 µM), 0.369; in test [3] (first compound 0.006325 µM) it was 0.461; in test [3] (first compound 0.02 µM), 0.243; in test [3] (first compound 0.06325 µM), 0.136. For the same cell line, the relative viability in test [4] (first compound 0.001 µM) is 0.946; in test [4] (first compound 0.003162 µM), 0.886; in test [4] (first compound 0.01 µM), 0.896; in test [4] (first compound 0.03162 µM), 1.02; in test [4] (first compound 0.1 µM), 1.04.

As for UMC-11, the relative viability was determined as 0.293 in test [1] (first compound 0.002 µM); 0.332 in test [1] (first compound 0.006325 µM); 0.29 in test [1] (first compound 0.02 µM); 0.375 in test [1] (first compound 0.06325 µM); 0.708 in test [2] (first compound 0.003162 µM); 0.638 in test [2] (first compound 0.01 µM). The relative viability came to 0.485 in test [2] (first compound 0.03162 µM); 0.691 in test [2] (first compound 0.1 µM); 0.551 in test [3] (first compound 0.002 µM); 0.574 in test [3] (first compound 0.006325 µM); 0.725 in test [3] (first compound 0.02 µM); 0.626 in test [3] (first compound 0.06325 µM). The relative viability in test [4] (first compound 0.003162 µM) was 0.972; in test [4] (first compound 0.01 µM), 1.17; in test [4] (first compound 0.03162 µM), 0.957; in test [4] (first compound 0.1 µM), 1.1.
